Drawing on US20250368666A1, “INDAZOLE COMPOUNDS” (TYRA BIOSCIENCES, INC., priority 2022, published 2025), this text covers IC50 and Kd for 12 molecules.

Test [1] concerns MDA-MB-453 cell line (FGFR4-Y367C). Nature of the test: Cancer cell line cell viability assay (Cell Titer-Glo), 120 hr. It is filed as cell-based. The following applies: Homo sapiens. The method, boiled down:
(§1)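 5,000-20,000 cells/well o/n; cpd 9-pt 4x dil from 3 μM, n=3; 37° C/5% CO2; CTG 2.0 lumi; % DMSO ctrl; 4PL IC50.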
In general terms: Cellular ATP, detected with luciferase, serves as a proxy for viable cell number.

Test [2] deals with RT112/84 cell line (FGFR3-fusion). Nature of the test: Cancer cell line cell viability assay (Cell Titer-Glo), 72 hr. It is filed as cell-based. The following applies: Homo sapiens, RT112/84, RT112/84 cell line (FGFR3-fusion). In outline: as §1
The test system of test [3] is KG-1 cell line (FGFR 1-fusion). Described as above. It is filed as cell-based. The following applies: Homo sapiens, KG-1, KG-1 cell line (FGFR1-fusion). In outline:
as §1

Test [4] deals with KATO-III cell line (FGFR2 amplification). The test is described as above. In kind it is cell-based. The following applies: Homo sapiens, KATO III. The method, boiled down:
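Cells seeded at 5,000-20,000/well, incubated overnight, then treated with a 9-dose, 4-fold dilution series from 3 μM in triplicate at 37° C, 5% CO2. Viability read by Cell Titer-Glo 2.0 luminescence as percent of DMSO control; IC50 from 4-parameter variable-slope sigmoidal fit.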

Another test has as its target T1, FGFR3 (Homo sapiens, UniProt P22607).
T1 construct: made in house; host or cells: E. coli (BL21-derived), T7 phage
The test is described as follows: Kinase binding assay (kinase-tagged T7 phage, affinity beads, qPCR), Kd. The following applies: read-out: FGFR3 (Kd nM). In outline: (§2)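 Readout was qPCR of kinase eluted from ligand-coated affinity beads after competition with test compound. Kinases were expressed as T7 phage fusions in E. coli. Binding constants were derived by non-linear least-squares Hill fitting, Hill slope −1.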
(In general: Real-time PCR tracks product formation cycle by cycle.)

In a further test the target is T2, FGFR1 (Homo sapiens, UniProt P11362).
T2 construct: made in house; host or cells: E. coli (BL21-derived), T7 phage
The description is as above. The following applies: read-out: FGFR1 (Kd nM). In outline:
as §2

In test [5] the test system is HuH7 cell line (FGF19 amplification). Nature of the test: Cancer cell line cell viability assay (Cell Titer-Glo), 120 hr. In kind it is cell-based. The following applies: Homo sapiens, Huh-7. The method, boiled down: as §1
For a further test, the target named is T3, FGFR4 (Homo sapiens, UniProt P22455).
T3 construct: made in house; host or cells: E. coli (BL21-derived), T7 phage
The test is described as follows: Kinase binding assay (kinase-tagged T7 phage, affinity beads, qPCR), Kd. The following applies: read-out: FGFR4 (Kd nM). In outline:
as §2

Another test has as its target T4, FGFR2 (Homo sapiens, UniProt P21802).
T4 construct: made in house; host or cells: E. coli (BL21-derived), T7 phage
The description is as above. The following applies: read-out: FGFR2 (Kd nM). In outline: as §2

The target in a further test is T5, FGFR3 (V555M) (Homo sapiens, UniProt P22607, V555M).
T5 construct: made in house; host or cells: E. coli (BL21-derived), T7 phage
The description is as above. The following applies: V555M mutant; read-out: FGFR3 (V555M) (Kd nM). The method, boiled down: as §2

One may read the IC50 as the concentration that gives 50% inhibition. A high value points to weaker potency in that assay. What is called Kd is a measure of binding affinity in units of concentration.

T2 sequence (P11362 22-822): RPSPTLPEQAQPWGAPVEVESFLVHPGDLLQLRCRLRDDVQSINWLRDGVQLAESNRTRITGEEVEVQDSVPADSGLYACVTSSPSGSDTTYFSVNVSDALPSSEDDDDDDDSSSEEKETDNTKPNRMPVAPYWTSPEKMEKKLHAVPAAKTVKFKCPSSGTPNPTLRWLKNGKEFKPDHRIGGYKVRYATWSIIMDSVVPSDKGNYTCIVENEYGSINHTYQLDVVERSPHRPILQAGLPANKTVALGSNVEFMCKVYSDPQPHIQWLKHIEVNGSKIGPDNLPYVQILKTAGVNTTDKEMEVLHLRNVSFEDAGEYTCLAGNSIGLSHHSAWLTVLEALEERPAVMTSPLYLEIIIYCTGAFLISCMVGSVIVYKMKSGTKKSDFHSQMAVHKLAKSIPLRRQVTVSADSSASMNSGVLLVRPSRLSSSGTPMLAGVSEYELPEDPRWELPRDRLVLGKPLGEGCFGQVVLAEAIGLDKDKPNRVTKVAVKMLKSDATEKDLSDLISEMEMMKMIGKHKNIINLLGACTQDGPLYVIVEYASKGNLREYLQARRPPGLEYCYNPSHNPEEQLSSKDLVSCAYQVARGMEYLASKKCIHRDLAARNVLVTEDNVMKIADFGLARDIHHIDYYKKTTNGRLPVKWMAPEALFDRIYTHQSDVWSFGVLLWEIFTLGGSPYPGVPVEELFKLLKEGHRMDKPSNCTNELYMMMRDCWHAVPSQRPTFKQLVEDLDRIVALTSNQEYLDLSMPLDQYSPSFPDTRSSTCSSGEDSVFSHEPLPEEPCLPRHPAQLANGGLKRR
T5 sequence (P22607 23-806 V555M): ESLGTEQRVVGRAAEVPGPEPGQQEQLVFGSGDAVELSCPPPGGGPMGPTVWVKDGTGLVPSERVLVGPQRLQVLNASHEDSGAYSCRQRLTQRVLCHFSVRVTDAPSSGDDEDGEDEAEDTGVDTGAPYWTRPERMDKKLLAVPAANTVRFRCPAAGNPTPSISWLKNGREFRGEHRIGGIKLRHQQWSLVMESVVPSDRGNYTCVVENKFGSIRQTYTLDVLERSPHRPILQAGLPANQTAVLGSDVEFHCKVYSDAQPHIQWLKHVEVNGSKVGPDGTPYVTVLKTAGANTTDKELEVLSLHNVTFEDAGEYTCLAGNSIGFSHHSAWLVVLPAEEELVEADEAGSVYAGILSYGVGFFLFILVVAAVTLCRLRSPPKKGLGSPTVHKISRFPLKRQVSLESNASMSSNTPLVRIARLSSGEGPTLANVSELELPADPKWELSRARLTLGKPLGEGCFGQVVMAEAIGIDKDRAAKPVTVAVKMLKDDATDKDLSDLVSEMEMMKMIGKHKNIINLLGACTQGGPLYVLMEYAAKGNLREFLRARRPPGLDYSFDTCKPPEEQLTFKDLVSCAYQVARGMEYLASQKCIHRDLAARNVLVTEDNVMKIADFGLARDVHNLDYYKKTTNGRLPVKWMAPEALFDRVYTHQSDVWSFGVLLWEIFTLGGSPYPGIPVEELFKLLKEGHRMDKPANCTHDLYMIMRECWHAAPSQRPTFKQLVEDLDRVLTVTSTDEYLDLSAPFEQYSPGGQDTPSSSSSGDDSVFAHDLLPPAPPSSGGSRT
T1 sequence (P22607 23-806): as the sequence (P22607 23-806 V555M) above, with M533V counted along it
T3 sequence (P22455 22-802): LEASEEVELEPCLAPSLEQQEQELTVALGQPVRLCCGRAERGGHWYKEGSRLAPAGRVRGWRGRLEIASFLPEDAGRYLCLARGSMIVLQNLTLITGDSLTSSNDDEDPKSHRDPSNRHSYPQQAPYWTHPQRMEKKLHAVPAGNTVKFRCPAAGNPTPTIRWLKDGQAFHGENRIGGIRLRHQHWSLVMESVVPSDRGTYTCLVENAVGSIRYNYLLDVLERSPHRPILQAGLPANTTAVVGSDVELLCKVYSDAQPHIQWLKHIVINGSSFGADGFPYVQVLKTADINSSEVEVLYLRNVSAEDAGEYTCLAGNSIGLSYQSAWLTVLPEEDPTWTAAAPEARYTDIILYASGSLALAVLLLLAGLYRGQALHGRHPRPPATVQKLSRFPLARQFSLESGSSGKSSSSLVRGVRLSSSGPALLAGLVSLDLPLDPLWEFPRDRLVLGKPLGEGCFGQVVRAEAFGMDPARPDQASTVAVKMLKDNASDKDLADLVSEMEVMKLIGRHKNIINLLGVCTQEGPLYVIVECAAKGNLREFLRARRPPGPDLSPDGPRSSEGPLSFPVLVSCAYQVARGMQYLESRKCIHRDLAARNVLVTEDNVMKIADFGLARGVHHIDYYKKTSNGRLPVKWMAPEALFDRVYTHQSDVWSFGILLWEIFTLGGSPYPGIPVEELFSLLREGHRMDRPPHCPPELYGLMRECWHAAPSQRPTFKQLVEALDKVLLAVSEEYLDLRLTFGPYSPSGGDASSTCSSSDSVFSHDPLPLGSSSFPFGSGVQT
T4 sequence (P21802 22-821): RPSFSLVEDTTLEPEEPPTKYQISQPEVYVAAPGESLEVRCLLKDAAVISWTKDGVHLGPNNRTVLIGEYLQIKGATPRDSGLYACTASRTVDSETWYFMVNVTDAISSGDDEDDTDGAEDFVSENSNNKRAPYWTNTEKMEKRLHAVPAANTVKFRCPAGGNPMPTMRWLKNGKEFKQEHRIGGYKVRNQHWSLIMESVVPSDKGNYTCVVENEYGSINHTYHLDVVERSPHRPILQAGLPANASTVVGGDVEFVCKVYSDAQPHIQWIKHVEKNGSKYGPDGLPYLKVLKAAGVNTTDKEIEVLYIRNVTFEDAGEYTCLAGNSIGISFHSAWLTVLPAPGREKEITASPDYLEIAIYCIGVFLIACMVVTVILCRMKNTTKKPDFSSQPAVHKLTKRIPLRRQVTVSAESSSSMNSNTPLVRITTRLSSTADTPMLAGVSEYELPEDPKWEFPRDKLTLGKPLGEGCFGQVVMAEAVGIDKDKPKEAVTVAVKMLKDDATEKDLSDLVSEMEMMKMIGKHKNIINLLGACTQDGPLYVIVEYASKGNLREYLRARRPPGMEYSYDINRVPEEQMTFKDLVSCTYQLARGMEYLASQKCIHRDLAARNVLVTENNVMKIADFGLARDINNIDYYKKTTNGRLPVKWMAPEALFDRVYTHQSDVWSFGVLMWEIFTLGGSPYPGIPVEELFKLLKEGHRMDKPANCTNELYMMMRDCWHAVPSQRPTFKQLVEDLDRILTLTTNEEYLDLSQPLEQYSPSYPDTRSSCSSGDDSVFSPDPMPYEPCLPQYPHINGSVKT

On to `C[C@@H](Oc1ccc2[nH]nc(-c3cnc(N4CC(N)(CC5CC5)C4)c(F)c3)c2c1)c1c(Cl)cncc1Cl` [Example 262, (R)-3-(cyclopropylmethyl)-1-(5-(5-(1-(3,5-dichloropyridin-4-yl)ethoxy)-1H-indazol-3-yl)-3-fluoropyridin-2-yl)azetidin-3-amine], for which the half-inhibitory concentration (IC50) in test [1] lay within 200 to 1000 nM; in [2], 0.1 to 50 nM; in test [3], 50 to 200 nM; in test [4] it was 50 to 200 nM. In addition, the Kd at FGFR3 and on FGFR1 was 1 to 50 nM throughout.

In the case of `C=CCNC1(C)CN(c2ncc(-c3n[nH]c4cc(OC)c(O[C@H](C)c5c(Cl)cncc5Cl)cc34)cc2C#N)C1` [Example 147, (R)-2-(3-(allylamino)-3-methylazetidin-1-yl)-5-(5-(1-(3,5-dichloropyridin-4-yl)ethoxy)-6-methoxy-1H-indazol-3-yl)nicotinonitrile], the IC50 is 0.1 to 50 nM in test [5], 0.1 to 50 nM in test [2], 50 to 200 nM in test [3] and 50 to 200 nM in test [4]. Also, the Kd at FGFR4, at FGFR3, at FGFR2, at FGFR3 (V555M) and at FGFR1 was 1 to 50 nM in each case.

For the molecule `C[C@@H](Oc1ccc2[nH]nc(-c3cnc(N4CC(C)(CN5CCOCC5)C4)c(C#N)c3)c2c1)c1c(Cl)cncc1Cl` [Example 122, (R)-5-(5-(1-(3,5-dichloropyridin-4-yl)ethoxy)-1H-indazol-3-yl)-2-(3-methyl-3-(morpholinomethyl)aze-tidin-1-yl)nicotinonitrile], the IC50 is 50 to 200 nM in test [5], 50 to 200 nM in test [2], 200 to 1000 nM in [3] and 200 to 1000 nM in [4]. For the same molecule, the Kd on FGFR4 is 1 to 50 nM; on FGFR3, 1 to 50 nM; on FGFR2 it was 50 to 300 nM; on FGFR3 (V555M), 1 to 50 nM; on FGFR1, 50 to 300 nM.

For the molecule `C[C@@H](O)CNC1(C)CN(c2ncc(-c3n[nH]c4ccc(O[C@H](C)c5c(Cl)cncc5Cl)cc34)cc2C#N)C1` [Example 56, 5-(5-((R)-1-(3,5-dichloropyridin-4-yl)ethoxy)-1H-indazol-3-yl)-2-(3-(((R)-2-hydroxypropyl)amino)-3-methylazetidin-1-yl)nicotinonitrile], the IC50 in test [5] lay in the range of 0.1 to 50 nM; in test [2], 0.1 to 50 nM; in test [3] it was 200 to 1000 nM; in [4] it was 50 to 200 nM. The Kd at FGFR4, at FGFR3, on FGFR2, at FGFR3 (V555M) and at FGFR1 was 1 to 50 nM in each case.

On to `COc1cc2[nH]nc(-c3cnc(N4CC(C)(N[C@H]5CCOC5)C4)c(C#N)c3)c2cc1O[C@H](C)c1c(Cl)cncc1Cl` [Example 24, 5-(5-((R)-1-(3,5-dichloropyridin-4-yl)ethoxy)-6-methoxy-1H-indazol-3-yl)-2-(3-methyl-3-(((S)-tetrahydrofuran-3-yl)amino)azetidin-1-yl)nicotinonitrile], for which the half-inhibitory concentration (IC50) in test [5] lay in the range of 0.1 to 50 nM; in test [2], 0.1 to 50 nM; in test [3] it was 50 to 200 nM; in test [4], 50 to 200 nM. For the same molecule, the Kd at FGFR4, at FGFR3, on FGFR2, at FGFR3 (V555M) and on FGFR1 was 1 to 50 nM throughout.

Consider `CCCNC1(C)CN(c2ncc(-c3n[nH]c4cc(OC)c(O[C@H](C)c5c(Cl)cncc5Cl)cc34)cc2C#N)C1` [Example 146, 5-[5-[(1R)-1-(3,5-dichloro-4-pyridyl)ethoxy]-6-methoxy-1H-indazol-3-yl]-2-[3-methyl-3-(propylamino)azetidin-1-yl]pyridine-3-carbonitrile], for which the IC50 was in the range of 0.1 to 50 nM in test [5], 0.1 to 50 nM in test [2], 50 to 200 nM in test [3] and 50 to 200 nM in test [4]. In addition, the Kd on FGFR4, at FGFR3, on FGFR2, on FGFR3 (V555M) and on FGFR1 was 1 to 50 nM in each case.

Turning to `COc1cc2[nH]nc(-c3cnc(N4CC(C)(NC(C)C)C4)nc3)c2cc1O[C@H](C)c1c(Cl)cncc1Cl` [Example 82, (R)-1-(5-(5-(1-(3,5-dichloropyridin-4-yl)ethoxy)-6-methoxy-1H-indazol-3-yl)pyrimidin-2-yl)-N-isopropyl-3-methylazetidin-3-amine], the half-maximal inhibitory concentration (IC50) in [5], in test [2], in [3] and in [4] was 0.1 to 50 nM throughout. Further, the Kd at FGFR4, at FGFR3, on FGFR2, on FGFR3 (V555M) and on FGFR1 was 1 to 50 nM throughout.

With `COc1cc2[nH]nc(-c3cnc(N4CC(C)(N)C4)c(C#N)c3)c2cc1O[C@H](C)c1c(Cl)cncc1Cl` [Example 143, 2-(3-amino-3-methyl-azetidin-1-yl)-5-[5-[(1R)-1-(3,5-dichloro-4-pyridyl)ethoxy]-6-methoxy-1H-indazol-3-yl]pyridine-3-carbonitrile], the IC50 lay in the range of 0.1 to 50 nM in [5], 0.1 to 50 nM in test [2], 50 to 200 nM in test [3] and 50 to 200 nM in test [4]. The Kd at FGFR4, on FGFR3, at FGFR2, on FGFR3 (V555M) and at FGFR1 was 1 to 50 nM in each case.

For `C[C@@H](Oc1ccc2[nH]nc(-c3cnc(N4CC(C)(NC(=O)CN(C)C)C4)c(C#N)c3)c2c1)c1c(Cl)cncc1Cl` [Example 87, (R)-N-(1-(3-cyano-5-(5-(1-(3,5-dichloropyridin-4-yl)ethoxy)-1H-indazol-3-yl)pyridin-2-yl)-3-methylazetidin-3-yl)-2-(dimethylamino)acetamide], the IC50 in test [5] fell in the range of 0.1 to 50 nM; in test [2] it was 50 to 200 nM; in [3], 200 to 1000 nM; in test [4] it was 200 to 1000 nM. Also, the Kd lay in the range of 1 to 50 nM at FGFR4; 1 to 50 nM at FGFR3; 50 to 300 nM on FGFR2; 1 to 50 nM on FGFR3 (V555M); 1 to 50 nM on FGFR1.

`COc1cc2[nH]nc(-c3cnc(N4CC(C)(N(C)C)C4)nc3)c2cc1O[C@H](C)c1c(Cl)cncc1Cl` [Example 51, (R)-1-(5-(5-(1-(3,5-dichloropyridin-4-yl)ethoxy)-6-methoxy-1H-indazol-3-yl)pyrimidin-2-yl)-N,N,3-trimethylazetidin-3-amine]: the IC50 in test [5], in test [2], in [3] and in test [4] was 0.1 to 50 nM in each case. The Kd on FGFR4, on FGFR3, at FGFR2, at FGFR3 (V555M) and on FGFR1 was 1 to 50 nM each time.

Take `COc1cc2[nH]nc(-c3cnc(N4CC(C)(N5CC(C)(OC)C5)C4)c(C#N)c3)c2cc1O[C@H](C)c1c(Cl)cncc1Cl` [Example 101, (R)-5-(5-(1-(3,5-dichloropyridin-4-yl)ethoxy)-6-methoxy-1H-indazol-3-yl)-2-(3-methoxy-3,3′-dimethyl-[1,3′-biazetidin]-1′-yl)nicotinonitrile]: the IC50 is 0.1 to 50 nM in test [5], 0.1 to 50 nM in test [2], 50 to 200 nM in test [3] and 0.1 to 50 nM in test [4]. Besides, the dissociation constant (Kd) on FGFR4, at FGFR3, at FGFR2, on FGFR3 (V555M) and at FGFR1 was 1 to 50 nM in each case.

For `C[C@@H](Oc1ccc2[nH]nc(-c3cnc(N4CC(C)(CN5CCCC5)C4)c(C#N)c3)c2c1)c1c(Cl)cncc1Cl` [Example 123, (R)-5-(5-(1-(3,5-dichloropyridin-4-yl)ethoxy)-1H-indazol-3-yl)-2-(3-methyl-3-(pyrrolidin-1-ylmethyl)azetidin-1-yl)nicotinonitrile], the IC50 in [5] lay within 0.1 to 50 nM; in [2], 50 to 200 nM; in test [3], 200 to 1000 nM; in test [4], 200 to 1000 nM. The Kd was 1 to 50 nM at FGFR4; 1 to 50 nM at FGFR3; 1 to 50 nM at FGFR2; 1 to 50 nM on FGFR3 (V555M); 50 to 300 nM on FGFR1.
